Experimental data reported in patent US11518973B2, “Device and method for automated antibiotic susceptibility testing of gram-negative bacteria” (Yellow Sea Fisheries Research Institute Chinese Academy Of …, priority 2018, dated 2022).
Converted amounts (≈) assume the structure as drawn.

Tests used:
Helicobacter pylori = assay: Synergetic effect of levofloxacin and clarithromycin by contactless conductivity (ΔC) monitoring of bacterial growth; format: cell-based; conditions: indicates growth
Experimental: Step 3: Involved hardware, containers, tools, consumables and special liquid medium for Helicobacter pylori are sterilized with high temperature steam (121° C.), following by cooling down to room temperature in sterile vessels. The special liquid medium is purchased from Qingdao Hope Bio-Technology Co., Ltd (Qingdao, China).
Step 4: Levofloxacin solutions at concentrations of 0.2, 0.4, 0.6 and 0.8 g/l are prepared with ultrapure sterile water. Clarithromycin solutions at concentrations of 0.2, 0.4, 0.6 and 0.8 g/l are prepared with ethyl alcohol.
Step 5: Eight milliliter sterilized special liquid medium for Helicobacter pylori is transferred into a 10 ml centrifuge tube with a pipette.
Step 6: Twelve well-definite bacterial colonies are transferred from inoculating dish, on which Helicobacter pylori is cultured for 18-20 h, into the 10 ml centrifuge tube to prepare bacterial suspension.
Step 7: One-end-closed disposable PVC tubes in length of 12 cm are used as test tubes (5). […]

Dysentery Bacillus = assay: AST assay of levofloxacin by contactless conductivity (ΔC) monitoring of bacterial growth; format: cell-based, Dysentery Bacillus (Enterobacteriaceae strain)
Experimental: f. Judging the bacterial cells proliferation result based on the ΔCs at the final point. The ΔC is equal to or larger than 10.0 μS/cm, indicating a proliferation; and ΔC is equal to or lower than 1.0 μS/cm, indicating a completely inhibition. The MIC is defined as the lowest concentration of antibiotic resulting in complete inhibition of growth.
Step 1: According to FIG. 1, an automated device with eight test channels is set up. An HtPot50 dry incubator, which is produced by ABSON Scientific Instruments Co. (Hefei, China), is used as a temperature control unit. The used 0.22 μm disposable syringe filter is produced by Zhejiang Aijiren INC (Quzhou, China). The actuator electrode A, pick-up electrode L and pick-up electrode S are all copper cylinders in external diameter of 4.00 mm with 0.95 mm wall thickness. Their lengths are 16 mm, 16 mm and 10 mm, respectively. In every test channel the three electrodes are coaxially fixed with fixing plate. The distance between the pick-up electrode L and pick-up electrode S is 5 mm; and the distance between the pick-up electrode S and the actuator electrode A is 10 mm. All of the electrodes of the eight test channels are linked to an ER815 capacitively coupled contactless conductivity detector (eDAQ Ltd, Australia). The capacitively coupled contactless conductivity detector is controlled with TERA TERM software installed in E470c laptop computer (Legend Holdings Corporation, China).
Step 2: The temperature in the constant temperature chamber (6) is set to be 36° C. with a nonidentity ≤0.5° C. by clicking the button of temperature control.
Step 3: Involved hardware, containers, tools, consumables and special liquid medium for Enterobacteriaceae are sterilized with high temperature steam (121° C.), following by cooling down to room temperature in sterile vessels. In the special liquid medium the concentrations of beef powder, proteose peptone, lactose, No. 3 bile salt, sodium citrate, sodium thiosulfate and ferric citrate are 5.0, 5.0, 10.0, 8.5, 8.5, 8.5 and 1.0 g/L, respectively. […]

## CC[C@H]1OC(=O)[C@H](C)[C@@H](O[C@H]2C[C@@](C)(OC)[C@@H](O)[C@H](C)O2)[C@H](C)[C@@H](O[C@@H]2O[C@H](C)C[C@H](N(C)C)[C@H]2O)[C@](C)(OC)C[C@@H](C)C(=O)[C@H](C)[C@@H](O)[C@]1(C)O [clarithromycin]
Helicobacter pylori; clarithromycin alone 0.10, 0.20, 0.30 and 0.40 mg/l (tubes No. 1-4, Step 12)
  ΔC at the end of incubation: ≥ 14.0 μS/cm

## C[C@H]1COc2c(N3CCN(C)CC3)c(F)cc3c(=O)c(C(=O)O)cn1c23 [levofloxacin]
Helicobacter pylori; levofloxacin alone 0.10, 0.20, 0.30 and 0.40 mg/l (tubes No. 1-4)
  ΔC at the end of incubation: ≥ 22.0 μS/cm
Dysentery Bacillus; Bacillus, lowest concentration with complete inhibition of growth (ΔC not more than 1.0 μS/cm), 36° C., 21600 s
  MIC: 2 µg/mL (≈ 5.53 µM)
Dysentery Bacillus; levofloxacin 0.25, 0.50 and 1.00 mg/l (tubes No. 1-3), indicates growth
  ΔC at the end of incubation: ≥ 18.0 μS/cm
Dysentery Bacillus; levofloxacin 2.00, 3.00, 4.00, 5.00 and 6.00 mg/l (tubes No. 4-8), growth completely inhibited
  ΔC at the end of incubation: not more than 1.0 μS/cm
